# Where two headings read alike, the source gives them in different places.
# Experiments:
# [1] = 0 h
# [2] = system: NPSR; settings: 30 mpk IP, discrete regions of the rat brain; cited from earlier work
# [3] = target: T1, NPSR (Homo sapiens, UniProt Q6W5P4); experiment: cAMP assay; type: cell-based; settings: relative to 1b
# T1 sequence (Q6W5P4 1-371): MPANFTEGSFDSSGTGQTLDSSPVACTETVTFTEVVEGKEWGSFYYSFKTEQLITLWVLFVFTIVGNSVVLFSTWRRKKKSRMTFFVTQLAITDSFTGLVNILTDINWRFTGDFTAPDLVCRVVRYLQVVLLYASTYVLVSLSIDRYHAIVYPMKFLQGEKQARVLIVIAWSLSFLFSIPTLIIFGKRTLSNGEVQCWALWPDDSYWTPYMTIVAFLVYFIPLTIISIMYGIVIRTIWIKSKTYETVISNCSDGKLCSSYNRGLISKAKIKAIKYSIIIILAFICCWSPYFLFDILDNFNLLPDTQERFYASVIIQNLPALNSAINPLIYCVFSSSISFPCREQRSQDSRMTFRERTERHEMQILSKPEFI
# [4] = target: T1, NPSR; experiment: Calcium mobilization assay in CHO-NPSR cells; type: cell-based
# [5] = target: T1, NPSR; experiment: [125I] Y10-hNPS binding; settings: relative to 1b
# [6] = Mouse pharmacokinetics, 10 mpk IP; type: in vivo
# [7] = system: Wistar rats; experiment: Rat palatable food intake model; type: in vivo
# [8] = target: Human Recombinant µ-Opioid Receptor OPRM1 (Homo sapiens, UniProt P35372); type: binding
# [9] = system: 55 targets; experiment: Profiling at 10 µM against 55 targets
# [10] = Solubility in PBS; type: physicochemical; settings: aqueous buffer
# [11] = system: rats; settings: cited from earlier work
# [12] = system: ERK phosphorylation; settings: rats, 1 mpk; cited from earlier work
# [13] = Stability after incubation in mouse liver microsomes; settings: 0 min
# [14] = system: Wistar rats; settings: rat food intake model; cited from earlier work
# [15] = system: NPS-induced hyperlocomotion; settings: 50 mpk IP, 90 minute mouse model; cited from earlier work
# [16] = 15 min; cited from earlier work
# [17] = Stability in aqueous buffers; type: physicochemical; settings: HBBS or PBS, 48 hours
# [18] = target: T1, NPSR; experiment: ERK assay; type: cell-based
# Human Recombinant µ-Opioid Receptor OPRM1, sequence (P35372 whole entry): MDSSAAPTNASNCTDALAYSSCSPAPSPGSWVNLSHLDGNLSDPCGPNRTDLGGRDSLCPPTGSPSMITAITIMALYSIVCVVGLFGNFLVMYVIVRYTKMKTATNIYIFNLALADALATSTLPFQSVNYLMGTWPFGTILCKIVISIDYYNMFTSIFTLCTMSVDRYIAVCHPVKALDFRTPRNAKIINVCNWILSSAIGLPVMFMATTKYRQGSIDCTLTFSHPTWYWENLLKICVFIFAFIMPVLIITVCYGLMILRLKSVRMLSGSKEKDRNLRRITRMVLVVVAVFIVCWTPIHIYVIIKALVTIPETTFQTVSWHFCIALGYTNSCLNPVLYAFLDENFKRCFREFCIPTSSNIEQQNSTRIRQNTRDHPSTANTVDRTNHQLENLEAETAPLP
compound,measurement,setting,value
CCC(C)(CCN1CCOCC1)N(Cc1cc2ccccc2n(C)c1=O)C(=O)C1CCCCC1 (centres unmarked) [compound 2],% parent compd remaining after incubation in mouse liver microsomes,[1],100%
same,ex vivo occupancy of NPSR,[2],high ex vivo occupancy of NPSR
"Cc1c(P(=S)(c2ccccc2)c2ccccc2)n2ccccc2[n+]1C/C=C/c1ccccc1.[Br-] [20e, 1-Cinnamyl-3-(diphenylphosphorothioyl)-2-methylimidazo[1,2-a]pyridin-1-ium]",fold more potent than 1b in the cAMP assay,[3],9 fold
same,fold more potent than 1b in the calcium assay,[4]; relative to 1b,5 fold
same,fold more potent than 1b in the displacement assay,[5],5 fold
same,"Brain concentration, mean","[6]; 10 mpk IP, 0 hr",BQL
same,"Plasma concentration, mean","[6]; 10 mpk IP, 0 hr",BQL
same,"Brain concentration, mean","[6]; 10 mpk IP, 0 hr, N=3",BQL
same,"Plasma concentration, mean","[6]; 10 mpk IP, 0 hr, N=3",BQL
same,"Brain concentration, mean","[6]; 10 mpk IP, 0.083 hr",30 nmol/g
same,"Brain concentration, mean","[6]; 10 mpk IP, 0.25 hr",52 nmol/g
same,"Brain concentration, mean","[6]; 10 mpk IP, 0.5 hr",53 nmol/g
same,"Brain concentration, mean","[6]; 10 mpk IP, 1 hr",44 nmol/g
same,"Brain concentration, mean","[6]; 10 mpk IP, 2 hr",57 nmol/g
same,"Brain concentration, mean","[6]; 10 mpk IP, 4 hr",53 nmol/g
same,"Brain concentration, mean","[6]; 10 mpk IP, 8 hr",60 nmol/g
same,"Brain concentration, mean","[6]; 10 mpk IP, 12 hr",93 nmol/g
same,"Brain concentration, mean","[6]; 10 mpk IP, 24 hr",52 nmol/g
same,concentration at 1 h,"[6]; plasma, ip, 10 mg/kg, Plasma concentration, mean, 10 mpk IP, 1 hr",556 nM
same,concentration at 2 h,"[6]; plasma, ip, 10 mg/kg, Plasma concentration, mean, 10 mpk IP, 2 hr",386 nM
same,concentration at 4 h,"[6]; plasma, ip, 10 mg/kg, Plasma concentration, mean, 10 mpk IP, 4 hr",245 nM
same,concentration at 8 h,"[6]; plasma, ip, 10 mg/kg, Plasma concentration, mean, 10 mpk IP, 8 hr",214 nM
same,concentration at 12 h,"[6]; plasma, ip, 10 mg/kg, Plasma concentration, mean, 10 mpk IP, 12 hr",126 nM
same,concentration at 24 h,"[6]; plasma, ip, 10 mg/kg, Plasma concentration, mean, 10 mpk IP, 24 hr",54 nM
same,adverse reactions,[6]; single 10 mpk IP dose,No adverse reactions were observed
same,reversal of NPS-induced suppression of palatable food intake,"[7]; single 10 µg icv, before 10 µg NPS icv, 15, 30 and 60 min",reverse the suppression of food intake
same,"fold activity relative to naloxone or morphine, DAMGO displacement",[8],< 200 fold
same,inhibition of control in seven of 55 targets,[9],> 90%
same,solubility kinetic,[10]; kinetic from dmso stock,> 150 µM
same,solubility thermodynamic,[10]; thermodynamic from solid,~45 µM
same,efficacy in rat alcohol models,[11]; IP dose of 1.0 mpk,show efficacy
same,alcohol self administration in rats,[11]; dose as low as 1 mpk,supression of alcohol self administartion
same,alcohol induced ERK phosphorylation in the central amygdala,[12],reduce alcohol induced ERK phosphorylation
same,% parent compd remaining after incubation in mouse liver microsomes,[13]; with NADPH,100%
same,% parent compd remaining after incubation in mouse liver microsomes,[13]; without NADPH,94%
[D-Cys(tBU)^5]NPS,reversal of the anorectic effect of NPS,[14],reverse the anorectic effect of NPS
"NPS: neuropeptide S, peptide sequence SFRNGVGTGMKKTSFQRAKS, endogenous agonist of NPSR [reference compound]",palatable food intake,"[7]; 10 µg NPS icv, 15, 30 and 60 min",marked reduction in food intake
"O=C(NCc1ccc(F)cc1)N1CCN2C(=O)OC(c3ccccc3)(c3ccccc3)C2C1 (centres unmarked) [1b, 3-oxo-1,1-diphenyl-tetrahydro-oxazolo[3,4-a]pyrazine-7-carboxylic acid 4-fluoro-benzylamide]",reduction of NPS-induced hyperlocomotion,[15],about 50%
same,brain level,[16],~6000 nM
"Cc1c(P(=S)(c2ccccc2)c2ccccc2)[n+]2ccccc2n1C.[I-] [compound 7, 3-(diphenylphosphorothioyl)-1,2-dimethylimidazo[1,2-a]pyridin-1-ium]",chemical stability in aqueous buffers,[17],did not decompose to any other species
"Cc1nc2ccccn2c1P(=S)(c1ccccc1)c1ccccc1 [12d, 3-(Diphenylphosphorothioyl)-2-methylimidazo[1,2-a]pyridine]",IC50,"[18]; ERK IC50, Table 1, CHO-NPS cells, 1 nM NPS (EC80), one experiment in duplicate",30 nM
"C[n+]1cc(P(=S)(c2ccccc2)c2ccccc2)n2ccccc21 [13a, 3-(Diphenylphosphorothioyl)-1-methylimidazo[1,2-a]pyridin-1-ium]",ERK assay inhibition at the highest concentration tested,"[18]; Table 1 footnote b, 50 µM",<50% ^b
"Cc1c(P(=S)(c2ccccc2)c2ccccc2)n2ccccc2[n+]1CCCc1ccccc1 [20d, 3-(Diphenylphosphorothioyl)-2-methyl-1-(3-phenylpropyl)imidazo[1,2-a]pyridin-1-ium]",IC50,[4]; IC50 in the calcium assay,1 nM
same,IC50,[18]; IC50 in the ERK assay,2 nM
